Measurements: US11028088B2, “Modulators of BTK proteolysis and methods of use” (Yale University, priority 2018, dated 2021)
Entries after “also recorded” stand apart in the source; their conditions may differ.

Tests used:
MKK7 = target: T1, MKK7 (Homo sapiens, UniProt O14733); assay: KINOMEscan competition binding assay, MKK7; conditions: read-out: KINOMEscan percentage of control, MKK7
T1 construct: purchased DiscoverX (KINOMEscan service)
T1 sequence (O14733 1-419): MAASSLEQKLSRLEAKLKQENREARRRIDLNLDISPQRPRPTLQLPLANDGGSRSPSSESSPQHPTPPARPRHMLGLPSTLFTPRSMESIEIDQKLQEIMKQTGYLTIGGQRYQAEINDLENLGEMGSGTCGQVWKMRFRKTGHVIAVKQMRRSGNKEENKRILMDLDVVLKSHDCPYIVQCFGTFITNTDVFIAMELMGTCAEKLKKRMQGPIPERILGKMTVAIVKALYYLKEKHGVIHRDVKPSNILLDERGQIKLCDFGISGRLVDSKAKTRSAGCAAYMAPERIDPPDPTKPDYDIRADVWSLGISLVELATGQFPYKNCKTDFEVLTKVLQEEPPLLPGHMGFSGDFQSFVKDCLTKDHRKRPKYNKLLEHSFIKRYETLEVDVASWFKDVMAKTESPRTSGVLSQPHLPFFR

TEC = target: T2, TEC (Homo sapiens, UniProt P42680); assay: KINOMEscan competition binding assay, TEC; conditions: read-out: KINOMEscan percentage of control, TEC
T2 sequence (P42680 1-631): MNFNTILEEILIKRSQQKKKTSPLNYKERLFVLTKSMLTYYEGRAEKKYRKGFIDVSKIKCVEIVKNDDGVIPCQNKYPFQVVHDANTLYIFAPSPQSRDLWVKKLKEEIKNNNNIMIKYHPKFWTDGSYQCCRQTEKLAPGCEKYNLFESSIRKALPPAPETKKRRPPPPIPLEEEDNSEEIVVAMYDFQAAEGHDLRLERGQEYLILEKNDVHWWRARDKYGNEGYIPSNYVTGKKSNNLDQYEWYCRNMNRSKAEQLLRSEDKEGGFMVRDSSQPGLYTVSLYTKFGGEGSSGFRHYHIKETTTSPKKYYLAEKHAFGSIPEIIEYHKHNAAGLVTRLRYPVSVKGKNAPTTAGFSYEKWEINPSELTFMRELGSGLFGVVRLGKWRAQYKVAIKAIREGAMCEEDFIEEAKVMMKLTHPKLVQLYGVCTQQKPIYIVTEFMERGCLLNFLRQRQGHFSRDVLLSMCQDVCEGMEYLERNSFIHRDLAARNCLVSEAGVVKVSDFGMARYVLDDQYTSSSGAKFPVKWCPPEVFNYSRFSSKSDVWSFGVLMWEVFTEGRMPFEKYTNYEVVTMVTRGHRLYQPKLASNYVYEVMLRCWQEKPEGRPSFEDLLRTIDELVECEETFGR

ITK = target: T3, ITK (Homo sapiens, UniProt Q08881); assay: KINOMEscan competition binding assay, ITK; set-up: purchased DiscoverX (KINOMEscan service); conditions: read-out: KINOMEscan percentage of control, ITK
T3 sequence (Q08881 1-620): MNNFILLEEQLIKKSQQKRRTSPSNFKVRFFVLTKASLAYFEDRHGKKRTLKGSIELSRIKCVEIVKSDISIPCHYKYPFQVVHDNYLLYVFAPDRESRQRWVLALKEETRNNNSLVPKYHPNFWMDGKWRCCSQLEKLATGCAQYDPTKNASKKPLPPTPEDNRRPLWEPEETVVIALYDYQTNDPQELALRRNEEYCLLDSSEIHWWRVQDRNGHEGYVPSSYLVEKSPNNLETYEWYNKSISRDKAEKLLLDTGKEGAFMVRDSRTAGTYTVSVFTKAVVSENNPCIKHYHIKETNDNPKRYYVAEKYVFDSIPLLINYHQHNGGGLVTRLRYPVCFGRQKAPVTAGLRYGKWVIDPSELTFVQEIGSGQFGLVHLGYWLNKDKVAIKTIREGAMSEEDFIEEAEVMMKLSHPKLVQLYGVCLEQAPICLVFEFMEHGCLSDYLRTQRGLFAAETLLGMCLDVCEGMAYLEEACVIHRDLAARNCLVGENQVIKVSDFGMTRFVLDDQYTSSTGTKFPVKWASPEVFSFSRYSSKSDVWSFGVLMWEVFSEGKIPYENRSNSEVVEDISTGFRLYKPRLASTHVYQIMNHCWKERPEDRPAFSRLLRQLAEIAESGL

BTK = BTK (Homo sapiens, UniProt Q06187); assay: BTK degradation in NAMALWA cells (immunoblot); format: cell-based; set-up: host or cells: NAMALWA; conditions: NAMALWA cells
Procedure, shortened: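 NAMALWA cells were cultured at 37° C in 5% CO2, and lysates were clarified and normalised for total protein by BCA. BTK was detected by immunoblot with primary antibodies at 1:1,000 and HRP secondaries at 1:10,000, using ECL chemiluminescence and densitometric band quantification.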

Chain of BTK (Q06187 whole entry): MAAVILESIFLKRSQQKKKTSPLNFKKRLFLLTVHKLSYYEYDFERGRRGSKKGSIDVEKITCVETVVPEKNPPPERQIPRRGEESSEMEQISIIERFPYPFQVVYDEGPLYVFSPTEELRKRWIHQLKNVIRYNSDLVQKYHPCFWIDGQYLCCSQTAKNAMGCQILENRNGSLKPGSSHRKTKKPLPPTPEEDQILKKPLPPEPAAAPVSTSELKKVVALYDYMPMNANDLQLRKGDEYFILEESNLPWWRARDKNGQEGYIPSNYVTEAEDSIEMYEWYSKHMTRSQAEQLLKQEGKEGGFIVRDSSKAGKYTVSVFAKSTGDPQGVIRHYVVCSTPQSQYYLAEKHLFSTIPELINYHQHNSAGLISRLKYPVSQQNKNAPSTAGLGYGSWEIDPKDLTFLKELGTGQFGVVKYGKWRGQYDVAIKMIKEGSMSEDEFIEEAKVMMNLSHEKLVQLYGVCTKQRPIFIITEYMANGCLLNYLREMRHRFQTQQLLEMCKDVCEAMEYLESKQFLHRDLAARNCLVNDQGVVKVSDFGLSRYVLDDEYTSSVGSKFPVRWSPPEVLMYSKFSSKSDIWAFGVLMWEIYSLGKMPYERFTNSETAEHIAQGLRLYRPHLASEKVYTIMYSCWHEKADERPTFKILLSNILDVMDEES

remaining binding at 1 µM (MKK7): > 80%
remaining binding at 1 µM (TEC): 3.6%
remaining binding at 1 µM (ITK): > 80%
time at which BTK is fully degraded (BTK; 250 nM): 4 h
time after which half of the total BTK is degraded (BTK; 250 nM, vs matched vehicle-treated time point, exponential fit): approximately 50 minutes
BTK degradation after pre-treatment with MLN-4924 (BTK; MLN-4924 1 μM 2.5 h, then 250 nM PROTAC 4 h): rescue of BTK levels
DC50 (BTK; concentration needed to degrade 50% of the total pool of BTK, read-out: DC50): 9.1 nM
BTK degradation after pre-treatment with excess ibrutinib (BTK; ibrutinib 25 μM 2.5 h, then 250 nM PROTAC 4 h): rescued BTK levels
Max (BTK; maximal BTK degradation, at 250 nM): >99%
BTK degradation after pre-treatment with excess pomalidomide (BTK; pomalidomide 25 μM 2.5 h, then 250 nM PROTAC 4 h): rescued BTK levels
Structure (SMILES): Nc1ncnc2c1c(-c1ccc(Oc3ccccc3)cc1)nn2C1CCN(CCOCCOCC(=O)Nc2ccc3c(c2)C(=O)N(C2CCC(=O)NC2=O)C3=O)CC1 (stereo not drawn) [Compound 102, 2-[2-[2-[4-[4-amino-3-(4-phenoxyphenyl)pyrazolo[3,4-d]pyrimidin-1-yl]-1-piperidyl]ethoxy]ethoxy]-N-[2-(2,6-dioxo-3-piperidyl)-1,3-dioxo-isoindolin-5-yl]acetamide]
BTK degradation after pre-treatment with epoxomicin (BTK; epoxomicin 1 μM 2.5 h, then 250 nM PROTAC 4 h): rescue of BTK levels; also recorded: did not result in BTK degradation
hook-effect (increase in BTK levels at high PROTAC concentration) (BTK; up to 2.5 μM, 24 h): without observation and No and no significant increases in BTK levels and (No
